# Patent US20180139987A1, “PHARMACEUTICAL POWDER COMPOSITION AND ITS USE IN THE CONTROL OF POST-PRANDIAL GLYCAEMIC PROFILE” (OMNIBLEND INNOVATION PTY LTD, priority 2015, published 2018)
# How the values were obtained:
# Healthy Participant = experiment: Post-prandial glycemic profile (finger-prick blood sugar) after white rice breakfast, healthy participant; type: in vivo, human; conditions: HP2 healthy participant, 125 g white rice
# Text: 125 g microwaveable white rice (details, amount of available carbohydrate?) was eaten together with a cup of water. Finger-prick blood sugar readings were taken before consumption of the standard meal in the morning (i.e. the standard meal was breakfast). Two readings were taken and the average value was used as the blood sugar reading. After consumption of the meal, another blood sugar reading was taken. Further blood sugar readings were taken at 15-minute intervals thereafter. A subject (HP2, Healthy Participant) was given a standard white rice breakfast, containing 125 g cooked white rice (example A3), and was tested for post-prandial glycemic profile-this was the first control glycemic profile. […] This was the third control glycemic profile. On another day, the same subject was given the acarbose-containing pre-meal drink described in example A1 (this drink is prepared according to the invention). This was the test glycemicsrofile.
# [1] = test system: subject with type 2 diabetes; experiment: Post-prandial glycemic profile (finger-prick blood sugar) after white rice breakfast, subjects with type 2 diabetes; type: in vivo, human
# Protocol: 160 g microwaveable white rice (details, amount of available carbohydrate?) was eaten together with a cup of water.
# 240 g microwaveable white rice (Uncle Bens Brand Microwavable White Rice, […] of available carbohydrate) and 200 ml of hot tea.
# Finger-prick blood sugar readings were taken before consumption of the standard meal in the morning (i.e. the standard meal was breakfast). Two readings were taken and the average value was used as the blood sugar reading. After consumption of the meal, another blood sugar reading was taken. Further blood sugar readings were taken at 15-minute intervals thereafter.
# A subject with type 2 diabetes (T2D1, person) was given a standard white rice breakfast (Example A2) and was tested for post-prandial glycemic profile—this was the first control glycemic profile. […] This was the third control glycemic profile. […] This was the test glycemic profile. […]
# A subject with type 2 diabetes (T2D5, person) was given a standard white rice breakfast (Example A2) and was tested for post-prandial glycemic profile—this was the first control glycemic profile. […] This was the third control glycemic profile. […] This was the test glycemic profile.
# This was the second glycemic test profile.
# This was the second test glycemic profile.
# This was the first glycemic test profile.
# [2] = test system: subject with type 2 diabetes; experiment: Post-prandial glycemic profile (finger-prick blood sugar) after white bread breakfast, subjects with type 2 diabetes; type: in vivo, human
# Text: 2 slices of thick-cut savoury white bread spread with 29 g jam (over both slices) were eaten together with a cup of tea or coffee. A total available carbohydrate per serve was 50 g. 2 slices of thick-cut savoury white bread spread with 29 g jam (over both slices) were eaten together with a cup of tea or coffee. […] A total available carbohydrate per serve was 50 g. Finger-prick blood sugar readings were taken before consumption of the standard meal in the morning (i.e. the standard meal was breakfast). Two readings were taken and the average value was used as the blood sugar reading. After consumption of the meal, another blood sugar reading was taken. Further blood sugar readings were taken at 15-minute intervals thereafter. […] This was the first glycemic test profile. […] This was the second glycemic test profile. […] This was the first test glycemic profile. […] This was the second glycemic test profile.
# patients = conditions: 1255 patients, Acarbose tablets 50-300 mg t.i.d.; cited from earlier work
structure (smiles),measurement,setting,value
C[C@H]1O[C@H](O[C@H]2[C@H](O)[C@@H](O)[C@@H](O[C@H]3[C@H](O)[C@@H](O)C(O)O[C@@H]3CO)O[C@@H]2CO)[C@H](O)[C@@H](O)[C@@H]1N[C@H]1C=C(CO)[C@@H](O)[C@H](O)[C@H]1O (stereo partly shown) [acarbose],glycemic profile (mM blood glucose),Healthy Participant; time after eating 0 min,6.03 mM
same,glycemic profile (mM blood glucose),Healthy Participant; time after eating 15 min,6.4 mM
same,glycemic profile (mM blood glucose),Healthy Participant; time after eating 30 min,7.04 mM
same,glycemic profile (mM blood glucose),Healthy Participant; time after eating 45 min,6.75 mM
same,glycemic profile (mM blood glucose),Healthy Participant; time after eating 60 min,5.9 mM
same,glycemic profile (mM blood glucose),Healthy Participant; time after eating 75 min,6.1 mM
same,glycemic profile (mM blood glucose),Healthy Participant; time after eating 90 min,6.175 mM
same,glycemic profile (mM blood glucose),Healthy Participant; time after eating 105 min,5.8 mM
same,glycemic profile (mM blood glucose),Healthy Participant; time after eating 120 min,6.3 mM
same,glycemic profile (mM blood glucose),Healthy Participant; time after eating 135 min,6.23 mM
same,glycemic profile (mM blood glucose),Healthy Participant; time after eating −15 min,5.65 mM
same,glycemic profile (mM blood glucose),"[1]; T2D1, 240 g white rice (Example B3), time after eating 30 min",9.32 mM
same,glycemic profile (mM blood glucose),"[1]; T2D1, 240 g white rice (Example B3), time after eating 60 min",10.4 mM
same,glycemic profile (mM blood glucose),"[1]; T2D1, 240 g white rice (Example B3), time after eating 75 min",11.0 mM
same,glycemic profile (mM blood glucose),"[1]; T2D1, 240 g white rice (Example B3), time after eating 90 min",10.8 mM
same,glycemic profile (mM blood glucose),"[1]; T2D1, 240 g white rice (Example B3), time after eating 105 min",11 mM
same,glycemic profile (mM blood glucose),"[1]; T2D1, 240 g white rice (Example B3), time after eating 120 min",10.4 mM
same,glycemic profile (mM blood glucose),"[1]; T2D1, 240 g white rice (Example B3), time after eating 135 min",10.4 mM
same,glycemic profile (mM blood glucose),"[1]; T2D1, 240 g white rice (Example B3), time after eating 165 min",9.45 mM
same,glycemic profile (mM blood glucose),"[1]; T2D1, 240 g white rice (Example B3), time after eating 180 min",9.66 mM
same,glycemic profile (mM blood glucose),"[1]; T2D1, 240 g white rice (Example B3), time after eating −25 min",7.3 mM
same,glycemic profile (mM blood glucose),"[1]; T2D1, 240 g white rice (Example B7), time after eating 30 min",9.32 mM
same,glycemic profile (mM blood glucose),"[1]; T2D1, 240 g white rice (Example B7), time after eating 60 min",10.4 mM
same,glycemic profile (mM blood glucose),"[1]; T2D1, 240 g white rice (Example B7), time after eating 75 min",11.0 mM
same,glycemic profile (mM blood glucose),"[1]; T2D1, 240 g white rice (Example B7), time after eating 90 min",10.8 mM
same,glycemic profile (mM blood glucose),"[1]; T2D1, 240 g white rice (Example B7), time after eating 105 min",11 mM
same,glycemic profile (mM blood glucose),"[1]; T2D1, 240 g white rice (Example B7), time after eating 120 min",10.4 mM
same,glycemic profile (mM blood glucose),"[1]; T2D1, 240 g white rice (Example B7), time after eating 135 min",10.4 mM
same,glycemic profile (mM blood glucose),"[1]; T2D1, 240 g white rice (Example B7), time after eating 165 min",9.45 mM
same,glycemic profile (mM blood glucose),"[1]; T2D1, 240 g white rice (Example B7), time after eating 180 min",9.66 mM
same,glycemic profile (mM blood glucose),"[1]; T2D1, 240 g white rice (Example B7), time after eating −25 min",7.3 mM
same,glycemic profile (mM blood glucose),"[1]; T2D1, standard white rice breakfast (Example A2, 160 g), time after eating 45 min",9.6 mM
same,glycemic profile (mM blood glucose),"[1]; T2D1, standard white rice breakfast (Example A2, 160 g), time after eating 60 min",9.8 mM
same,glycemic profile (mM blood glucose),"[1]; T2D1, standard white rice breakfast (Example A2, 160 g), time after eating 75 min",9.6 mM
same,glycemic profile (mM blood glucose),"[1]; T2D1, standard white rice breakfast (Example A2, 160 g), time after eating 90 min",10.9 mM
same,glycemic profile (mM blood glucose),"[1]; T2D1, standard white rice breakfast (Example A2, 160 g), time after eating 105 min",9.65 mM
same,glycemic profile (mM blood glucose),"[1]; T2D1, standard white rice breakfast (Example A2, 160 g), time after eating 120 min",10.25 mM
same,glycemic profile (mM blood glucose),"[1]; T2D1, standard white rice breakfast (Example A2, 160 g), time after eating 135 min",9.82 mM
same,glycemic profile (mM blood glucose),"[1]; T2D1, standard white rice breakfast (Example A2, 160 g), time after eating 150 min",9.26 mM
same,glycemic profile (mM blood glucose),"[1]; T2D5, 240 g white rice (Example B2), time after eating 0 min",7.4 mM
same,glycemic profile (mM blood glucose),"[1]; T2D5, 240 g white rice (Example B2), time after eating 30 min",10.4 mM
same,glycemic profile (mM blood glucose),"[1]; T2D5, 240 g white rice (Example B2), time after eating 45 min",10.1 mM
same,glycemic profile (mM blood glucose),"[1]; T2D5, 240 g white rice (Example B2), time after eating 60 min",9.7 mM
same,glycemic profile (mM blood glucose),"[1]; T2D5, 240 g white rice (Example B2), time after eating 75 min",9.95 mM
same,glycemic profile (mM blood glucose),"[1]; T2D5, 240 g white rice (Example B2), time after eating 165 min",7.3 mM
same,glycemic profile (mM blood glucose),"[1]; T2D5, 240 g white rice (Example B2), time after eating 180 min",6.5 mM
same,glycemic profile (mM blood glucose),"[1]; T2D5, 240 g white rice (Example B2), time after eating −10 min",5.2 mM
same,glycemic profile (mM blood glucose),"[1]; T2D5, 240 g white rice (Example B2), time after eating −25 min",5 mM
same,glycemic profile (mM blood glucose),"[1]; T2D5, 240 g white rice (Example B6), time after eating 0 min",7.4 mM
same,glycemic profile (mM blood glucose),"[1]; T2D5, 240 g white rice (Example B6), time after eating 30 min",10.4 mM
same,glycemic profile (mM blood glucose),"[1]; T2D5, 240 g white rice (Example B6), time after eating 45 min",10.15 mM
same,glycemic profile (mM blood glucose),"[1]; T2D5, 240 g white rice (Example B6), time after eating 60 min",9.76 mM
same,glycemic profile (mM blood glucose),"[1]; T2D5, 240 g white rice (Example B6), time after eating 75 min",9.95 mM
same,glycemic profile (mM blood glucose),"[1]; T2D5, 240 g white rice (Example B6), time after eating 165 min",7.3 mM
same,glycemic profile (mM blood glucose),"[1]; T2D5, 240 g white rice (Example B6), time after eating 180 min",6.5 mM
same,glycemic profile (mM blood glucose),"[1]; T2D5, 240 g white rice (Example B6), time after eating −10 min",5.2 mM
same,glycemic profile (mM blood glucose),"[1]; T2D5, 240 g white rice (Example B6), time after eating −25 min",5 mM
same,"peak glucose height, rise above baseline","[1]; T2D5, 240 g white rice, baselines of both profiles matched",5.3 mmol/L
same,glycemic profile (mM blood glucose),"[2]; T2D5, 2 slices white bread + 29 g jam (Example B4), time after eating 0 min",8.5 mM
same,glycemic profile (mM blood glucose),"[2]; T2D5, 2 slices white bread + 29 g jam (Example B4), time after eating 15 min",9.3 mM
same,glycemic profile (mM blood glucose),"[2]; T2D5, 2 slices white bread + 29 g jam (Example B4), time after eating 30 min",9.5 mM
same,glycemic profile (mM blood glucose),"[2]; T2D5, 2 slices white bread + 29 g jam (Example B4), time after eating 45 min",9.65 mM
same,glycemic profile (mM blood glucose),"[2]; T2D5, 2 slices white bread + 29 g jam (Example B4), time after eating 60 min",9.85 mM
same,glycemic profile (mM blood glucose),"[2]; T2D5, 2 slices white bread + 29 g jam (Example B4), time after eating 75 min",9.6 mM
same,glycemic profile (mM blood glucose),"[2]; T2D5, 2 slices white bread + 29 g jam (Example B4), time after eating 90 min",9.8 mM
same,glycemic profile (mM blood glucose),"[2]; T2D5, 2 slices white bread + 29 g jam (Example B4), time after eating 105 min",9.35 mM
same,glycemic profile (mM blood glucose),"[2]; T2D5, 2 slices white bread + 29 g jam (Example B4), time after eating 120 min",9.05 mM
same,glycemic profile (mM blood glucose),"[2]; T2D5, 2 slices white bread + 29 g jam (Example B4), time after eating 135 min",7.65 mM
same,glycemic profile (mM blood glucose),"[2]; T2D5, 2 slices white bread + 29 g jam (Example B4), time after eating 150 min",6.93 mM
same,glycemic profile (mM blood glucose),"[2]; T2D5, 2 slices white bread + 29 g jam (Example B4), time after eating 165 min",6.55 mM
same,glycemic profile (mM blood glucose),"[2]; T2D5, 2 slices white bread + 29 g jam (Example B4), time after eating 180 min",5.35 mM
same,glycemic profile (mM blood glucose),"[2]; T2D5, 2 slices white bread + 29 g jam (Example B4), time after eating −10 min",6.5 mM
same,glycemic profile (mM blood glucose),"[2]; T2D5, 2 slices white bread + 29 g jam (Example B4), time after eating −25 min",6.25 mM
same,glycemic profile (mM blood glucose),"[2]; T2D9, 2 slices white bread + 29 g jam (Example B5), time after eating 0 min",11.8 mM
same,glycemic profile (mM blood glucose),"[2]; T2D9, 2 slices white bread + 29 g jam (Example B5), time after eating 15 min",12.8 mM
same,glycemic profile (mM blood glucose),"[2]; T2D9, 2 slices white bread + 29 g jam (Example B5), time after eating 30 min",11.6 mM
same,glycemic profile (mM blood glucose),"[2]; T2D9, 2 slices white bread + 29 g jam (Example B5), time after eating 45 min",11.3 mM
same,glycemic profile (mM blood glucose),"[2]; T2D9, 2 slices white bread + 29 g jam (Example B5), time after eating 60 min",11.4 mM
same,glycemic profile (mM blood glucose),"[2]; T2D9, 2 slices white bread + 29 g jam (Example B5), time after eating 75 min",11.1 mM
same,glycemic profile (mM blood glucose),"[2]; T2D9, 2 slices white bread + 29 g jam (Example B5), time after eating 90 min",10.4 mM
same,glycemic profile (mM blood glucose),"[2]; T2D9, 2 slices white bread + 29 g jam (Example B5), time after eating 105 min",11.0 mM
same,glycemic profile (mM blood glucose),"[2]; T2D9, 2 slices white bread + 29 g jam (Example B5), time after eating 120 min",11.8 mM
same,glycemic profile (mM blood glucose),"[2]; T2D9, 2 slices white bread + 29 g jam (Example B5), time after eating 135 min",11.2 mM
same,glycemic profile (mM blood glucose),"[2]; T2D9, 2 slices white bread + 29 g jam (Example B5), time after eating 150 min",11.8 mM
same,glycemic profile (mM blood glucose),"[2]; T2D9, 2 slices white bread + 29 g jam (Example B5), time after eating 165 min",12.9 mM
same,glycemic profile (mM blood glucose),"[2]; T2D9, 2 slices white bread + 29 g jam (Example B5), time after eating 180 min",10.2 mM
same,glycemic profile (mM blood glucose),"[2]; T2D9, 2 slices white bread + 29 g jam (Example B5), time after eating −10 min",9.9 mM
same,glycemic profile (mM blood glucose),"[2]; T2D9, 2 slices white bread + 29 g jam (Example B5), time after eating −25 min",10.4 mM
same,incidence of abdominal pain,patients,19%
same,incidence of diarrhea,patients,31%
same,incidence of flatulence,patients,74%
